Data on 4 molecules can be found in patent US20240208908A1, “CRYSTAL FORM OF PYRIDINE NITROGEN OXIDE COMPOUND AND USE THEREOF” (SHANGHAI JEMINCARE PHARMACEUTICAL CO., LTD, priority 2021, published 2024).

The target of one data set is T1, NaV1.8 (Homo sapiens, UniProt Q9Y5Y9).
T1 construct: expressed in transfected cells
Description: Whole-cell patch-clamp, blocking activity on NaV1.8 channel current (CHO cell line stably expressing NaV1.8). Particulars: statement in words. The format is cell-based. The procedure: • 1. Test method: the patch-clamp technique was used to detect the effects of compound on the voltage-gated sodium channels (NaV) 1.1 to 1.8 subtype currents
• 1) the specific information of CHO cell line stably expressing NaV1.8 channel was as follows: SCN10A: NM_006514 • 2) Cells were cultured in HAM'S/F-12 medium containing 10% fetal bovine serum, 10 μg/mL Blasticidin, 200 μg/mL Hygromycin B and 100 μg/mL Zeocin at 37° C. and 5% carbon dioxide concentration. • 3) Cell passage: the old medium was removed and washed once with PBS, and then 1 mL of 0.25%-Trypsin-EDTA solution was added and incubated at 37° C. for 1.5 minutes. When the cells were detached from the bottom of the plate, 5 mL of 37° C. prewarmed complete medium was added. […]
Double-pulse mode was performed by two 0 mV depolarization test pulses (TP1 and TP2) for 50 ms. […] Data acquisition was repeated at 20 s intervals and the current peaks at two test pulses were measured.
While the NaV channel current recorded in the whole cell was stable, the drug was administered, and each drug concentration was applied for 5 minutes (or the current is stabilized) and then the next concentration was detected; each test compound was detected at multiple concentrations. […] The current detected by each cell in the external fluid without the compounds was used as its own control group. Multiple cells were detected independently and repeatedly. […]
In general terms: In patch-clamp work, channel activity is measured electrically.

Data set [1] is described as follows: Pharmacokinetics in rats, single intravenous injection or intragastric administration. The format is in vivo, male Sprague Dawley rats. Here is the method:
In this experimental embodiment, in vivo pharmacokinetic evaluation was evaluated in rats by single intravenous injection or intragastric oral administration.
Experimental methods and conditions: male Sprague Dawley rats; all animals were fasted overnight, and were given a single dose of the compound to be tested at 1 mg/kg (intravenous injection, solvent 5% DMSO/10% Solutol/85% Saline) and 10 mg/kg (intragastric administration) respectively, at 5 min, 15 min, 30 min, 1 hr, 2 hr, 4 hr, 6 hr, 8 hr and 24 h after drug administration, blood was collected from the submandibular vein, about 0.20 mL per sample was collected, heparin sodium was used for anticoagulation, and then it was placed on ice after collection and centrifuged within 1 hour to separate the plasma for testing. The concentration of the drug in the plasma was measured by liquid tandem mass spectrometry (LC/MS/MS), and the measured concentration was used to calculate pharmacokinetic parameters.

The nature of data set [2]: Suspension competition test of crystal forms. The format is physicochemical. Here is the method: In order to further study the transformation relationship between the free anhydrous crystal form and the hydrate crystal form, a suspension competition test was carried out on the anhydrous crystal form B/G and the hydrate crystal form A. Firstly, the suspension competition test between […] B and G was set up at 5° C., room temperature and 50° C. in ACN and room temperature in EtOAc. The specific steps are as follows: 1) saturated solution of the free state was prepared in different solvent systems at corresponding temperatures; 2) the corresponding free crystal form sample was added into 0.5 mL of the saturated solution to form a suspension; 3) the mixture was magnetically stirred under corresponding temperature conditions; 4) after stirring for 1 to 5 days, the solid was separated for XRPD testing.
Therefore, a suspension competition test of stable anhydrous crystal form B at room temperature and hydrate form A with different water activities (aw=0/0.2/0.4/0.6/0.8/1.0) of ACN/H2O at room temperature was set up. […] Reference source not found.

Data set [3] can be described thus: Solid-state stability experiment (XRPD, HPLC). The format is physicochemical. To be noted: for Crystal form variation: XRPD. Here is the method: The stability test in the high-performance liquid chromatography (IPLC) test used in the present disclosure is tested by an Agilent 1260 high-performance liquid chromatograph, and the analytical conditions are shown in Table 11.
In order to evaluate the solid stability of the free anhydrous crystal form B, an appropriate amount of the sample was respectively weighed, placed at 60° C. for 24 hours, and exposed at 25° C./60% RH and 40° C./75[…] for one week. The crystal changes of the solid samples placed under different conditions were tested by XRPD, and the chemical stability was evaluated by HPLC.

The mark [4] stands for this setting: 25° C./60% RH/exposure, one week.
Where [5] appears, read: 40° C./75% RH/exposure, one week.
[6] abbreviates: statement in words, all test conditions.

T1 sequence (Q9Y5Y9 whole entry): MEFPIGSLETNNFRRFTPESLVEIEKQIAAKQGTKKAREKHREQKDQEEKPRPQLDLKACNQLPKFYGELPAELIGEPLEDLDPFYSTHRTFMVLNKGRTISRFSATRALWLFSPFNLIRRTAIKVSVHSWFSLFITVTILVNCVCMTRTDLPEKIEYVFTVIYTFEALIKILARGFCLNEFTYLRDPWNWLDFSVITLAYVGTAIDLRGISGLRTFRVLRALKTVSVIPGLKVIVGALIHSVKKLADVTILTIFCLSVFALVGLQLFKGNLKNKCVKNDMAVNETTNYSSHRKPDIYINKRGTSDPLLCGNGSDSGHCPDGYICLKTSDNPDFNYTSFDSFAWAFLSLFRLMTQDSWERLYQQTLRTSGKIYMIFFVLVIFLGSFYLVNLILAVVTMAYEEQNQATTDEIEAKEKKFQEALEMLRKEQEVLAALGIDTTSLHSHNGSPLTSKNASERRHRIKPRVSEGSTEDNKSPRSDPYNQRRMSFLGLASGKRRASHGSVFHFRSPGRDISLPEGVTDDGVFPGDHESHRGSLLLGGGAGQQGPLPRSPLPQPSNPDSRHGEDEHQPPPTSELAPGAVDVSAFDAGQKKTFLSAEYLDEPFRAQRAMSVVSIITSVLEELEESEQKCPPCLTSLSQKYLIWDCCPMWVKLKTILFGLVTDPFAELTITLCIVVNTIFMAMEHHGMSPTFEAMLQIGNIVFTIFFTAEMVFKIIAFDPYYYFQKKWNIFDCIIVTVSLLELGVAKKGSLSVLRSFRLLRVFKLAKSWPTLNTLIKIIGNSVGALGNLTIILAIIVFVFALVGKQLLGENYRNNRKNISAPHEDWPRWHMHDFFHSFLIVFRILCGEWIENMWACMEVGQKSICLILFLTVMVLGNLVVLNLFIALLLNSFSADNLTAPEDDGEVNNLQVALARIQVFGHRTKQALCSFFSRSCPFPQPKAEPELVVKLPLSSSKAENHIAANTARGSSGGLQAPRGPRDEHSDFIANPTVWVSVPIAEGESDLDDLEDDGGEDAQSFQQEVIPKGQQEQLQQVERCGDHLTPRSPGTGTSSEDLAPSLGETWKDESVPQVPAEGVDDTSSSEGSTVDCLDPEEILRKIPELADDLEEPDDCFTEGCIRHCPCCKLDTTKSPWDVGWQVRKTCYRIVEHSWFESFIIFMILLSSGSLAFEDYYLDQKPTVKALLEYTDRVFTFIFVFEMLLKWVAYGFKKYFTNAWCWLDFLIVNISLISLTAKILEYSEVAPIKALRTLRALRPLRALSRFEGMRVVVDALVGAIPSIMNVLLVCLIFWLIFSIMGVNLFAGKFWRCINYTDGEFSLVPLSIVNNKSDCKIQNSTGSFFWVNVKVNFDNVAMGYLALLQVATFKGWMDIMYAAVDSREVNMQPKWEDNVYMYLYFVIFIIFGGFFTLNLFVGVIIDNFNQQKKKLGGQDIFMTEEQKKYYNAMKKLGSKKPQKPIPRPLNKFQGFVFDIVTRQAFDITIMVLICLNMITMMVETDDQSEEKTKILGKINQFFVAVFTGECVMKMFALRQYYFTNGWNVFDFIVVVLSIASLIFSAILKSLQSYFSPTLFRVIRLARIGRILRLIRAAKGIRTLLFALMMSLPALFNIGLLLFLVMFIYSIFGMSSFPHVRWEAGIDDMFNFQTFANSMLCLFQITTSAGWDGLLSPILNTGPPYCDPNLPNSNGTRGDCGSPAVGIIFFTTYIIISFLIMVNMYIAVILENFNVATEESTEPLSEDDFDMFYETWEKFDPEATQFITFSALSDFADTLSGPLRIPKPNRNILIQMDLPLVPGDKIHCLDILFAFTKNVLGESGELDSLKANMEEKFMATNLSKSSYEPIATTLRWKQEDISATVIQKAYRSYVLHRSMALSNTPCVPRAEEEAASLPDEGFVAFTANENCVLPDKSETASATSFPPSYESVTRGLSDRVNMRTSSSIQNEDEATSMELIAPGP

For `O=C(Nc1ccc[n+]([O-])c1)c1cc(Cl)c(Cl)cc1Oc1ccc(OC(F)(F)F)cc1` [Compound of formula (I)], on NaV1.8, the “blocking effect on NaV1.8 channel activity” value is reported as “obvious blocking effect”. This molecule also showed a F in data set [1] (rat, intragastric 10 mg/kg) of 72.59%. The “pharmacokinetic absorption in rats” value in data set [1] (statement in words) is recorded as “good pharmacokinetic absorption”.

Take `O=C(Nc1ccc[n+]([O-])c1)c1cc(Cl)c(Cl)cc1Oc1ccc(OC(F)(F)F)cc1` [Crystal form A/B]: the “crystal form obtained in suspension competition” value was “anhydrous crystal form B was obtained” in data set [2] (ACN/H2O, room temperature, aw=0 to 0.4) and “hydrate crystal form A was obtained” in data set [2] (ACN/H2O, room temperature, aw=0.6 to 1 (pure water)). Moreover, the “Competition test result (crystal form obtained)” value in data set [2] (test 22-A1, ACN (aw to 0), room temperature) was “Free crystal form B”; in data set [2] (test 22-A2, ACN/H2O (981:19, aw to 0.2), room temperature) it was “Free crystal form B”; in data set [2] (test 22-A3, ACN/H2O (957:43, aw to 0.4), room temperature) it was “Free crystal form B”; in data set [2] (test 22-A4, ACN/H2O (924:76, aw to 0.6), room temperature), “Free crystal form B”; in data set [2] (test 22-A5, ACN/H2O (87:13, aw to 0.8), room temperature), “Free crystal form B”; in data set [2] (test 22-A6, H2O (aw to 1.0), room temperature), “Free crystal form B”.

With `O=C(Nc1ccc[n+]([O-])c1)c1cc(Cl)c(Cl)cc1Oc1ccc(OC(F)(F)F)cc1` [Crystal form B/G], in data set [2] (ACN at 5° C., room temperature, 50° C. and EtOAc at room temperature), the “crystal form obtained in suspension competition” value was “only the free crystal form B was obtained”. For the same molecule, the “Competition test result (crystal form obtained)” value in data set [2] (test 22-B1, ACN (aw to 0), 5° C.) is “Free crystal form B”; in data set [2] (test 22-B2, ACN (aw to 0), room temperature), “Free crystal form B”; in data set [2] (test 22-B3, ACN (aw to 0), 50° C.) it was “Free crystal form B”; in data set [2] (test 22-B4, EtOAc (aw to 0), room temperature) it was “Free crystal form B”.

Consider `O=C(Nc1ccc[n+]([O-])c1)c1cc(Cl)c(Cl)cc1Oc1ccc(OC(F)(F)F)cc1` [Free crystal form B], for which, in data set [3] (setting [4]), the Purity stood at 99.90 area %, the “Relative to initial purity” value came to 99.99% and the Crystal form variation entry is on record as “Constant”. Moreover, in data set [3] (setting [5]), the Purity is on record as 99.90 area %, the “Relative to initial purity” value is recorded as 99.99% and the Crystal form variation result is reported as “Constant”. In addition, in data set [3] (60° C./closed, 24 hours), the Purity stood at 99.91 area %, the “Relative to initial purity” value was determined as 100.00% and the Crystal form variation entry is “Constant”. The molecule further showed a Purity in data set [3] (Start) of 99.91 area %. For the same molecule, in data set [3] (setting [6]), the “HPLC purity under the test conditions” value was “not decreased obviously” and the “crystal form change under the test conditions” value was “not changed”. Besides, in data set [2] (conclusion in words), the “stability and druggability compared with hydrate crystal form” value was “better stability”.
